Results published in PubChem BioAssay (NCI).
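Following 48 hours of exposure in 96-well plates, responses at five concentrations were used to interpolate endpoints linearly. TGI: concentration producing complete growth inhibition.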

Tests used:
Assay in all cases: NCI tumour cell line growth inhibition, 48 h
[1] = tested on: 786-0 renal
[2] = tested on: A498 renal
[3] = tested on: A549 NSCLC
[4] = tested on: ACHN renal
[5] = tested on: CAKI-1 renal
[6] = tested on: CCRF-CEM leukemia
[7] = tested on: COLO 205 colon
[8] = tested on: DLD-1 colon
[9] = tested on: DMS 114 small cell lung
[10] = tested on: DMS 273 small cell lung
[11] = tested on: EKVX NSCLC
[12] = tested on: HCC-2998 colon
[13] = tested on: HCT-116 colon
[14] = tested on: HOP-18 NSCLC
[15] = tested on: HOP-62 NSCLC
[16] = tested on: HOP-92 NSCLC
[17] = tested on: HT29 colon
[18] = tested on: IGROV1 ovarian
[19] = tested on: K-562 leukemia
[20] = tested on: KM12 colon
[21] = tested on: KM20L2 colon
[22] = tested on: LOX IMVI melanoma
[23] = tested on: LXFL 529 NSCLC
[24] = tested on: M14 melanoma
[25] = tested on: M19-MEL melanoma
[26] = tested on: MALME-3M melanoma
[27] = tested on: MOLT-4 leukemia
[28] = tested on: NCI-H226 lung
[29] = tested on: NCI-H23 lung
[30] = tested on: NCI-H460 lung
[31] = tested on: NCI-H522 lung
[32] = tested on: OVCAR-3 ovarian
[33] = tested on: OVCAR-4 ovarian
[34] = tested on: OVCAR-5 ovarian
[35] = tested on: OVCAR-8 ovarian
[36] = tested on: RPMI-8226 leukemia
[37] = tested on: RXF-631 renal
[38] = tested on: SF-268 CNS
[39] = tested on: SF-295 CNS
[40] = tested on: SF-539 CNS
[41] = tested on: SK-MEL-2 melanoma
[42] = tested on: SK-MEL-28 melanoma
[43] = tested on: SK-MEL-5 melanoma
[44] = tested on: SK-OV-3 ovarian
[45] = tested on: SN12C renal
[46] = tested on: SNB-19 CNS
[47] = tested on: SNB-75 CNS
[48] = tested on: SNB-78 CNS
[49] = tested on: SR leukemia
[50] = tested on: SW-620 colon
[51] = tested on: TK-10 renal
[52] = tested on: U251 CNS
[53] = tested on: UACC-257 melanoma
[54] = tested on: UACC-62 melanoma
[55] = tested on: UO-31 renal
[56] = tested on: XF 498 CNS

Measured: TGI

C#CCOCn1cnc2ncnc(Cl)c21
> 100 µM: all assays above
